Holding throughout (type): cell-based
The target of test [1] is T1, αvβ8 (Homo sapiens, UniProt P06756+P26012).
T1 construct: expressed in transfected cells; host or cells: K562
The test can be described thus: Cell adhesion assay, K562-αvβ8 (LAP-b1). The following applies: K562-αvβ8 cells, ligand LAP-b1, 2 mM MgCl2; mean; read-out: αvβ8 pIC50 (mean affinity, cell Adhesion Assay) (converted). On the procedure:
(§1) Reagents and methods utilised are as described [Ludbrook et al, Biochem. J. 2003, 369, 311 and Macdonald et al. ACS Med. Chem. Lett. 2014, 5, 1207-1212 for αvβ8 assay), with the following points of clarification. The following cell lines are used, with ligands in brackets: K562-αvβ3 (LAP-b1), K562-αvβ5 (Vitronectin), K562-αvβ6 (LAP-b1), K562-αvβ8 (LAP-b1), A549-αvβ1 (LAP-b1). The divalent cation used to facilitate adhesion is 2 mM MgCl2. Adhesion is quantified by cell labelling with the fluorescent dye BCECF-AM (Life Technologies), where cell suspensions at 3×10^6 cells/mL are incubated with 0.33 uL/mL of 30 mM BCECF-AM at 37° C. for 10 minutes, then 50 μL/well are dispensed into the 96-well assay plate. At the assay conclusion cells that adhered are lysed using 50 μL/well of 0.5% Triton X-100 in H2O to release fluorescence. Fluorescence intensity is detected using an Envision® plate reader (Perkin Elmer). For active antagonists in the assay, data is fitted to a 4 parameter logistic equation for IC50 determinations.

Test [2] has as its target T2, αvβ5 (Homo sapiens, UniProt P06756+P18084).
T2 construct: expressed in transfected cells; host or cells: K562
The test can be described thus: Cell adhesion assay, K562-αvβ5 (Vitronectin). The following applies: K562-αvβ5 cells, ligand Vitronectin, 2 mM MgCl2; mean; read-out: αvβ5 pIC50 (mean affinity, cell Adhesion Assay) (converted). On the procedure: as §1

In test [3] the target is T3, αvβ3 (Homo sapiens, UniProt P05106+P06756).
T3 construct: expressed in transfected cells; host or cells: K562
T3 sequence (P06756 31-889 limits assumed): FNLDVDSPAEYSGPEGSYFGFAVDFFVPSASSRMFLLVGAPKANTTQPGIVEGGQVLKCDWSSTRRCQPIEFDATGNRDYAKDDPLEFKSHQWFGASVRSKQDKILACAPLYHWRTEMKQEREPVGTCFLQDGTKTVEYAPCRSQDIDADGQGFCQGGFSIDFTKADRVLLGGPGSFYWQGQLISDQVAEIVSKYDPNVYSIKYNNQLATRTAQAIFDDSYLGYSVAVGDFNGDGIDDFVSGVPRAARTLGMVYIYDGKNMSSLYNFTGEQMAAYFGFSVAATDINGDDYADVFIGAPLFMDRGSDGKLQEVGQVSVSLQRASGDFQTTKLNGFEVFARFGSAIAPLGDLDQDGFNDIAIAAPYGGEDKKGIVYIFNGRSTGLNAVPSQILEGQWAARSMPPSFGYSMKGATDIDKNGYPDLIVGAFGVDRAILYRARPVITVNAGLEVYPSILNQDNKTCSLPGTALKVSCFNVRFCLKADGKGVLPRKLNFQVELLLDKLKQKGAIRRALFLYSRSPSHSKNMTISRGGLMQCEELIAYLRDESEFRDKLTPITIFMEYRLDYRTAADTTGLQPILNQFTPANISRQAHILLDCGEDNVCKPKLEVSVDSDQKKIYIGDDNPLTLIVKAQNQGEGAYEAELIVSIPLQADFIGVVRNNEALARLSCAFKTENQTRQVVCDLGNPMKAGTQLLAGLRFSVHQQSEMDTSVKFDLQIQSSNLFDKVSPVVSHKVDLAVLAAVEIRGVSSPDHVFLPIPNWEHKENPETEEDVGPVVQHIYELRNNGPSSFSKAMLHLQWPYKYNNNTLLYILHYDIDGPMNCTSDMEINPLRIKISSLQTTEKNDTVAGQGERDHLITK
T3 sequence (P06756 891-1048 partner limits assumed): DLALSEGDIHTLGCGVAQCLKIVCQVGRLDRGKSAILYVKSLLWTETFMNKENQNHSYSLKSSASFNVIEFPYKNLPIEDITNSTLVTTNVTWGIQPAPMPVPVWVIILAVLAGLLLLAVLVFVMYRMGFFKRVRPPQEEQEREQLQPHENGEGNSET
T3 sequence (P05106 27-788): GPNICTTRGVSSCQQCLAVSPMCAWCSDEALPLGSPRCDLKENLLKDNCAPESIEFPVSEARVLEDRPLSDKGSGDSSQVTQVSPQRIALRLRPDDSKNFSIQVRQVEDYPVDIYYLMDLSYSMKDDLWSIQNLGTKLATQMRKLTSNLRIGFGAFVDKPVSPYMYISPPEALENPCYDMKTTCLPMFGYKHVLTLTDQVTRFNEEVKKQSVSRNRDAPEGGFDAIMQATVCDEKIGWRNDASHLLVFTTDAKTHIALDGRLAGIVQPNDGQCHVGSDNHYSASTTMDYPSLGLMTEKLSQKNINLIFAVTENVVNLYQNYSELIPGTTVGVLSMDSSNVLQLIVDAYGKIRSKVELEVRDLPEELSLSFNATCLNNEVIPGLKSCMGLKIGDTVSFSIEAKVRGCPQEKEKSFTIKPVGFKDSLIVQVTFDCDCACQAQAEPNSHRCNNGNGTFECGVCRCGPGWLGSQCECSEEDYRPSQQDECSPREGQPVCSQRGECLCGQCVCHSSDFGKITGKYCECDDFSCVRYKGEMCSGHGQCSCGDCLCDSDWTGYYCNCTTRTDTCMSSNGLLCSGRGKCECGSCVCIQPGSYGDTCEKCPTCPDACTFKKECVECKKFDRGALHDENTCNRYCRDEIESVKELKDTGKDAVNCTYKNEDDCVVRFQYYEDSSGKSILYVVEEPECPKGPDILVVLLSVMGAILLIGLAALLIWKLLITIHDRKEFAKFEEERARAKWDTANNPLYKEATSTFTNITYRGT
The test can be described thus: Cell adhesion assay, K562-αvβ3 (LAP-b1). The following applies: K562-αvβ3 cells, ligand LAP-b1, 2 mM MgCl2; mean; read-out: αvβ3 pIC50 (mean affinity, cell Adhesion Assay) (converted). On the procedure: as §1

The target of test [4] is T4, αvβ1 (Homo sapiens, UniProt P05556+P06756).
T4 construct: host or cells: A549
T4 sequence (P06756 31-889 limits assumed): as the sequence (P06756 31-889 limits assumed) above
T4 sequence (P06756 891-1048 partner limits assumed): as the sequence (P06756 891-1048 partner limits assumed) above
T4 sequence (P05556 21-798): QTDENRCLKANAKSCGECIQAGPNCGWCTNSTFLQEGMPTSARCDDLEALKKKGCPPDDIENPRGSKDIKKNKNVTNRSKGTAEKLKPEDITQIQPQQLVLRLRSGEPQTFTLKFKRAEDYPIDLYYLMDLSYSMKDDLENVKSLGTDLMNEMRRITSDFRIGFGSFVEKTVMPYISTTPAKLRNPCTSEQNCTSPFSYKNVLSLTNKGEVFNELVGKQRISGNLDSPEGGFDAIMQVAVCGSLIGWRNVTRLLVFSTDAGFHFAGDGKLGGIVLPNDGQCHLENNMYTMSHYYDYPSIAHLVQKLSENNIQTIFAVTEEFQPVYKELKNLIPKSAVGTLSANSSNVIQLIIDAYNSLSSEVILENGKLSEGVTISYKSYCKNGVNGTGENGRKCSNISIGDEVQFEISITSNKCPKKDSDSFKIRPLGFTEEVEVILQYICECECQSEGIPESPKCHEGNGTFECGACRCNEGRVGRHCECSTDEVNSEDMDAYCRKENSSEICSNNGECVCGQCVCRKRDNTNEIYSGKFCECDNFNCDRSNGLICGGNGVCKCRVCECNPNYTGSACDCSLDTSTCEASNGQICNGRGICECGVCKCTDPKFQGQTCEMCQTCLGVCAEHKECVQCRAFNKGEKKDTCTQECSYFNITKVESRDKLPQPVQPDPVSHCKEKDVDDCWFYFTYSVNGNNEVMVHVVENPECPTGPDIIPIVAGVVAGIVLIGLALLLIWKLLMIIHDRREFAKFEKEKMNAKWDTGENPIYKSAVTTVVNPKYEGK
In words: Cell adhesion assay, A549-αvβ1 (LAP-b1). The following applies: A549-αvβ1 cells, ligand LAP-b1, 2 mM MgCl2; mean; read-out: αvβ1 pIC50 (mean affinity, cell Adhesion Assay) (converted). On the procedure: as §1

The target in test [5] is T5, αvβ6 (Homo sapiens, UniProt P06756+P18564).
T5 construct: expressed in transfected cells; host or cells: K562
T5 sequence (P06756 31-889 limits assumed): as the sequence (P06756 31-889 limits assumed) above
T5 sequence (P06756 891-1048 partner limits assumed): as the sequence (P06756 891-1048 partner limits assumed) above
T5 sequence (P18564 22-788): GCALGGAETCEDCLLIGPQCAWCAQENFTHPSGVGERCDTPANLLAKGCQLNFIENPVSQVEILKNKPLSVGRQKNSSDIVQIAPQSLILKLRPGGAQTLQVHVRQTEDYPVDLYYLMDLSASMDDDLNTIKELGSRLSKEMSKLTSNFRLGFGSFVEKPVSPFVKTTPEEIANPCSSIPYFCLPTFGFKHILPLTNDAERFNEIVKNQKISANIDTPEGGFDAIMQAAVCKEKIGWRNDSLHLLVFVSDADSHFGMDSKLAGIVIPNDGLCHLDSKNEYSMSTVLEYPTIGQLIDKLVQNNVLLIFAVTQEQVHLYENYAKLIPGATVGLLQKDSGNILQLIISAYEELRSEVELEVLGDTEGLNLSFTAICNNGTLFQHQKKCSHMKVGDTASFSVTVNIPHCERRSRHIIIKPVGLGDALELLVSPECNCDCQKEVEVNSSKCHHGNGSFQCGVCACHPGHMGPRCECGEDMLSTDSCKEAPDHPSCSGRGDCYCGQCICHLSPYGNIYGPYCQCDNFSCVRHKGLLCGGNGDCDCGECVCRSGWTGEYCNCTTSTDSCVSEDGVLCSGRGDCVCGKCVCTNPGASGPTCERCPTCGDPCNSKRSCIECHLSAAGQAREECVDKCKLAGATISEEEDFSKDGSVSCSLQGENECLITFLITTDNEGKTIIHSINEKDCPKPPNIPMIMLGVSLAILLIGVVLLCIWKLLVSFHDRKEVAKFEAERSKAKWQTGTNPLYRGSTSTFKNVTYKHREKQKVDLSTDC
The test can be described thus: Cell adhesion assay, K562-αvβ6 (LAP-b1). Conditions: K562-αvβ6 cells, ligand LAP-b1, 2 mM MgCl2; mean; read-out: αvβ6 pIC50 (mean affinity, cell Adhesion Assay) (converted). As to the method: as §1

This note sets out measurements from US20210206758A1, “NAPHTHYRIDINES AS INTEGRIN ANTAGONISTS” (GlaxoSmithKline Intellectual Property Development Limited, priority 2016, published 2021).

T2 sequence (P06756 31-889 limits assumed): as the sequence (P06756 31-889 limits assumed) above
T2 sequence (P06756 891-1048 partner limits assumed): as the sequence (P06756 891-1048 partner limits assumed) above
T2 sequence (P18084 24-799): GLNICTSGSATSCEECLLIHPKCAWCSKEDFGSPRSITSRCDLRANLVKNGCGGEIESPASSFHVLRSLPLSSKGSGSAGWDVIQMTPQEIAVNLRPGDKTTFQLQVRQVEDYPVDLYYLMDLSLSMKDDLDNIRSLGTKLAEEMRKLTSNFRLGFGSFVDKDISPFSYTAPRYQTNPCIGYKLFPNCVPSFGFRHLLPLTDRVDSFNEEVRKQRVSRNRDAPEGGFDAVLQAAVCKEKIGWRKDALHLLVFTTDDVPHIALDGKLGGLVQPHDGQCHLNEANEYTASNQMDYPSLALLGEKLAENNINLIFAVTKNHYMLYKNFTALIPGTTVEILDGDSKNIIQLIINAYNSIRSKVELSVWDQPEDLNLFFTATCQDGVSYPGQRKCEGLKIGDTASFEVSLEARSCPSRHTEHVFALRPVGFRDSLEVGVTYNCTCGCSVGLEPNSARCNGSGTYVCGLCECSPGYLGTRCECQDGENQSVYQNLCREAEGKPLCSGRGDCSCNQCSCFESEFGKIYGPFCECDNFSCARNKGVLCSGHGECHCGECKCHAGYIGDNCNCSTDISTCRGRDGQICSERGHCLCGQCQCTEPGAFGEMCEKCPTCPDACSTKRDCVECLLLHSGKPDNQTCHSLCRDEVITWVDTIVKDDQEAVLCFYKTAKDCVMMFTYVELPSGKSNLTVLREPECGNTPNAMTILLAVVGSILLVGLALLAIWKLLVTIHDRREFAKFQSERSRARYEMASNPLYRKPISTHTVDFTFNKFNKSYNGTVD

As for `O=C(O)C[C@H](CN1CC[C@@](F)(CCc2ccc3c(n2)NCCC3)C1)c1cccc(O[C@@H]2CCOC2)c1` [Example 3, (S)-4-((S)-3-Fluoro-3-(2-(5,6,7,8-tetrahydro-1,8-naphthyridin-2-yl)ethyl)pyrrolidin-1-yl)-3-(3-(((R)-tetrahydrofuran-3-yl)oxy)phenyl)butanoic acid], the IC50 in test [1] is 50.1 nM; in test [2], 39.8 nM; in test [3], 100 nM; in test [4], 200 nM; in test [5], 5.01 nM.

On to `COCCOc1ccc(F)c(C(CC(=O)O)CN2CC[C@@](F)(CCc3ccc4c(n3)NCCC4)C2)c1` (stereo partly drawn) [Example 14, 4-((S)-3-Fluoro-3-(2-(5,6,7,8-tetrahydro-1,8-naphthyridin-2-yl)ethyl)pyrrolidin-1-yl)-3-(2-fluoro-5-(2-methoxyethoxy)phenyl)butanoic acid], for which the IC50 is 158 nM in test [1]; 25.1 nM in test [2]; 501 nM in test [3]; 2000 nM in test [4]; 25.1 nM in test [5].

`O=C(O)C[C@H](CN1CC[C@@](F)(CCc2ccc3c(n2)NCCC3)C1)c1cccc(C2CCOC2)c1` (single isomer, unassigned; isomer 1) [Example 10]: the IC50 in test [1] was 20 nM; in test [2], 79.4 nM; in test [3], 63.1 nM; in test [4], 398 nM; in test [5], 12.6 nM.

With `CO[C@@H](C)COc1cccc([C@H](CC(=O)O)CN2CC[C@@](F)(CCc3ccc4c(n3)NCCC4)C2)c1` [Example 6], the IC50 in test [1] is 39.8 nM; in test [2], 316 nM; in test [3] it was 63.1 nM; in test [4], 126 nM; in test [5], 12.6 nM.
